Source: publication PMC8018184, “Evaluation of the Pharmacophoric Role of the O–O Bond in Synthetic Antileishmanial Compounds: Comparison between 1,2-Dioxanes and Tetrahydropyrans” (Journal of Medicinal Chemistry, 2020)

System: L. donovani promastigotes (MHOM/NP/02/BPK282/0cl4)
Experiment: Promastigote growth inhibition assay (alamarBlue)
Format: cell-based, Leishmania donovani
Settings: for IC50: Leishmania donovani, 72 h, alamarBlue, HOMEM 20% FBS, compounds as racemates, read-out: IC50 (concentration causing 50% growth inhibition) against promastigotes of L. donovani; for Selectivity index (SI) = CC50/IC50: Vero CC50 / IC50 on promastigotes
Method: The bioactivity of the new tetrahydropyrans 3 was initially evaluated against the extracellular promastigote forms of L. donovani (MHOM/NP/02/BPK282/0cl4) as the reference strain, indicative of the leishmaniasis in the Old World. The results were expressed as IC50, i.e., the concentration of the product required to inhibit the parasite growth by 50%. When a compound could inhibit the promastigote growth, its cytotoxicity was also evaluated on Vero cells (Table 1) and on THP-1 cells (see the Supporting Information, Table S3) and the corresponding selectivity indexes (SIs) were calculated. The performance of each tetrahydropyran 3 was compared with that of the corresponding endoperoxide 2 (Table 1).
Promastigotes of a L. donovani reference strain (MHOM/NP/02/BPK282/0cl4) were maintained at 26 °C in a liquid custom-made medium, HOMEM Cat. no: 1140-082 (Gibco Thermo Fisher Scientific Inc., Waltham, USA), complete composition: S-MEM (Eagle) 1 × 1 liter pack, glucose (1–2 g), sodium bicarbonate (0.3 g), sodium pyruvate (0.11 g), p-aminobenzoic acid (1 mg), biotin (0.1 mg), HEPES (4.77–5.96 g), MEM amino acids (10 mL), MEM nonessential amino acids (10 mL), pH 7.5–7.6, supplemented with 20% fetal bovine serum (FBS, EuroClone SpA, Milan, Italy)[123] and 1% penicillin–streptomycin (EuroClone SpA).
To evaluate the efficacy of the compounds on the extracellular forms of L. donovani, promastigotes in their late log/stationary phase were seeded with the complete HOMEM medium at 10^6 cells mL^–1 in 96-well plates and incubated with tested compounds at a range concentration of 600–1.6 μM in a 26 °C incubator for 72 h. The antileishmanial drug amphotericin B was used as the positive control, and untreated promastigotes were the negative control. Each experiment was performed in duplicate. Stock solution of the compounds was 8 mM in DMSO. […] The alamarBlue assay includes a colorimetric growth indicator based on detection of metabolic activity. Specifically, the system incorporates an oxidation–reduction (REDOX) indicator that changes color in response to chemical reduction of the growth medium resulting from cell growth. The method monitors the reducing environment of proliferating cells; the cell-permeable resazurin is added (nonfluorescent form, blue color) and, upon entering cells, is reduced to resorufin (fluorescent form, red color) as a result of cellular metabolic activity. Evaluation was performed by adding 20 μL of alamarBlue and incubating at 26 °C for 24 h. The reducing environment was evaluated after 24 h by absorbance measurement at the Multiskan ascent plate reader (Thermo Fisher Scientific Inc.) at 550 and 630 nm.

SMILES	IC50	Selectivity index (SI) = CC50/IC50
CCCCC1(CCCC)CO[C@@](C)(OC)[C@@H](CNCCCn2ccnc2)C1 (racemic) [3a, N-((5,5-Dibutyl-2-methoxy-2-methyltetrahydro-2H-pyran-3-yl)methyl)-3-(1H-imidazol-1-yl)propan-1-amine]	3.4 ± 0.4 µM	10.4
CCCCC1(CCCC)C[C@H](CNCCCn2ccnc2)[C@](C)(OC)OO1 [2a]	7.5 ± 1.7 µM	9.6
